Reference: PubChem BioAssay AID330 (DTP/NCI, 2004)
Inconclusive results and toxic doses are left out. How the source made its calls: active means survival T/C of 150% or more; inactive means T/C below 125% in these data.

Test system: P388 leukemia ip, CD2F1 mice, survival T/C
Assay: NCI In Vivo Anticancer Drug Screen. Data for tumor model P388 Leukemia (intraperitoneal) in CD2F1 (CDF1) mice
Settings: endpoint: median survival time, higher = longer survival
Outline: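 Mice carrying the transplanted tumor received test compound or vehicle. Survival was recorded in each group, and the value is the treated-group measurement divided by that of the vehicle-treated control group.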

[1] = dose: 50.0 mg/kg/injection, schedule: Q01DX005 (ip), vehicle: Klucel (hydroxypropylcellulose) (HPC)
[2] = dose: 100.0 mg/kg/injection, schedule: Q01DX005 (ip), vehicle: Klucel (hydroxypropylcellulose) (HPC)
[3] = dose: 200.0 mg/kg/injection, schedule: Q01DX005 (ip), vehicle: Klucel (hydroxypropylcellulose) (HPC)
[4] = dose: 25.0 mg/kg/injection, schedule: Q01DX009 (ip), vehicle: saline with Tween-80
[5] = dose: 400.0 mg/kg/injection, schedule: Q01DX009 (ip), vehicle: saline with Tween-80
[6] = dose: 100.0 mg/kg/injection, schedule: Q01DX001 (ip), vehicle: Klucel (hydroxypropylcellulose) (HPC)
[7] = dose: 200.0 mg/kg/injection, schedule: Q01DX001 (ip), vehicle: Klucel (hydroxypropylcellulose) (HPC)
[8] = dose: 400.0 mg/kg/injection, schedule: Q01DX001 (ip), vehicle: Klucel (hydroxypropylcellulose) (HPC)
[9] = dose: 50.0 mg/kg/injection, schedule: Q01DX005 (ip), vehicle: saline with Tween-80
[10] = dose: 100.0 mg/kg/injection, schedule: Q01DX005 (ip), vehicle: saline with Tween-80
[11] = dose: 200.0 mg/kg/injection, schedule: Q01DX005 (ip), vehicle: saline with Tween-80

Measured: T/C

Cc1ccc(S(=O)(=O)NC(=O)NNC(=O)C(=O)Nc2ccc(F)cc2)cc1
inactive: [1] 100 % of control | [2] 90 % of control | [3] 90 % of control

Nc1ncnc2c1ccn2C1OC(CSCCC(N)C(=O)O)C(O)C1O (configuration not stated)
inactive: dose: 0.5 mg/kg/injection, schedule: Q01DX009 (ip), vehicle: water 98 % of control | dose: 1.0 mg/kg/injection, schedule: Q01DX009 (ip), vehicle: water 102 % of control | dose: 2.0 mg/kg/injection, schedule: Q01DX009 (ip), vehicle: water 97 % of control | dose: 4.0 mg/kg/injection, schedule: Q01DX009 (ip), vehicle: water 93 % of control | dose: 8.0 mg/kg/injection, schedule: Q01DX009 (ip), vehicle: water 104 % of control

O=C(CNC(=O)c1ccccc1)N/N=C/c1ccc2c(c1)OCO2
inactive: [4] 100 % of control | [5] 96 % of control

CCN(CC)c1c(C)c(-c2ccccc2)n[n+]([O-])c1-c1ccccc1
inactive: [6] 104 % of control | [7] 107 % of control | [8] 104 % of control

CCCCCC(C(=O)O)(c1ccccc1)c1ccccc1
inactive: [9] 106 % of control | [10] 106 % of control | [11] 106 % of control

CC12CCC(c3cn[nH]c31)C2(C)C (configuration not stated)
inactive: dose: 60.0 mg/kg/injection, schedule: Q01DX005 (ip), vehicle: Klucel (hydroxypropylcellulose) (HPC) 100 % of control | dose: 120.0 mg/kg/injection, schedule: Q01DX005 (ip), vehicle: Klucel (hydroxypropylcellulose) (HPC) 100 % of control | dose: 240.0 mg/kg/injection, schedule: Q01DX005 (ip), vehicle: Klucel (hydroxypropylcellulose) (HPC) 100 % of control

N#C/C(=C\c1ccncc1)c1ccccc1
inactive: dose: 3.13 mg/kg/injection, schedule: Q01DX009 (ip), vehicle: saline with Tween-80 90 % of control | dose: 6.25 mg/kg/injection, schedule: Q01DX009 (ip), vehicle: saline with Tween-80 95 % of control | dose: 12.5 mg/kg/injection, schedule: Q01DX009 (ip), vehicle: saline with Tween-80 92 % of control | [4] 109 % of control

CCOP(O)(=S)OCC.[Nd]
inactive: [6] 89 % of control | [7] 91 % of control | [8] 99 % of control

COc1ccc(-c2cc(O)c3c(c2N)C(=O)c2c(O)ccc(N)c2C3=O)cc1
inactive: [1] 86 % of control | [2] 90 % of control | [3] 90 % of control

CC(OC(C(O)C=O)C(O)C(O)CO)C(=O)N[C@@H](C)C(=O)O (some centres not stated)
inactive: dose: 60.0 mg/kg/injection, schedule: Q01DX005 (ip), vehicle: saline with Tween-80 101 % of control | dose: 120.0 mg/kg/injection, schedule: Q01DX005 (ip), vehicle: saline with Tween-80 100 % of control | dose: 240.0 mg/kg/injection, schedule: Q01DX005 (ip), vehicle: saline with Tween-80 100 % of control

[O-]c1nn(-c2ccccc2)n[n+]1-c1ccccc1
inactive: [6] 97 % of control | [7] 100 % of control | [8] 94 % of control

CC(C)NC(C#N)C(C)C (configuration not stated)
inactive: dose: 3.12 mg/kg/injection, schedule: Q01DX005 (ip), vehicle: Klucel (hydroxypropylcellulose) (HPC) 99 % of control | dose: 6.25 mg/kg/injection, schedule: Q01DX005 (ip), vehicle: Klucel (hydroxypropylcellulose) (HPC) 108 % of control | dose: 12.5 mg/kg/injection, schedule: Q01DX005 (ip), vehicle: Klucel (hydroxypropylcellulose) (HPC) 102 % of control

CC1CC[N+](C)([B-](F)(F)F)CC1 (configuration not stated)
inactive: dose: 50.0 mg/kg/injection, schedule: Q01DX005 (ip), vehicle: saline 100 % of control | dose: 100.0 mg/kg/injection, schedule: Q01DX005 (ip), vehicle: saline 106 % of control

COC(=O)C1CC=CCC1C(=O)OC (configuration not stated)
inactive: dose: 100.0 mg/kg/injection, schedule: Q04DX002 (ip), vehicle: saline with Tween-80 107 % of control | dose: 200.0 mg/kg/injection, schedule: Q04DX002 (ip), vehicle: saline with Tween-80 106 % of control | dose: 400.0 mg/kg/injection, schedule: Q04DX002 (ip), vehicle: saline with Tween-80 100 % of control

CC(=O)[C-](C)C(C)=O.CC(=O)[C-](C)C(C)=O.CC(=O)[C-](C)C(C)=O.[Ru+3]
inactive: [9] 100 % of control | [10] 113 % of control | [11] 90 % of control

[Cl][Sb]([Cl])([Cl])([c]1ccccc1)[c]1ccccc1
inactive: dose: 6.25 mg/kg/injection, schedule: Q01DX009 (ip), vehicle: saline 101 % of control | dose: 12.5 mg/kg/injection, schedule: Q01DX009 (ip), vehicle: saline 98 % of control | dose: 25.0 mg/kg/injection, schedule: Q01DX009 (ip), vehicle: saline 91 % of control

CC(=O)NC(CO)C(=O)c1ccc(S(=O)(=O)c2ccccc2)cc1 (configuration not stated)
inactive: dose: 100.0 mg/kg/injection, schedule: Q01DX009 (ip), vehicle: saline with Tween-80 97 % of control | dose: 200.0 mg/kg/injection, schedule: Q01DX009 (ip), vehicle: saline with Tween-80 91 % of control | [5] 94 % of control
